Publication PMC4755721 (Chemical research in toxicology, 2015)
Entries after “also recorded” stand apart in the source; their conditions may differ. Where two headings read alike, the source gives them in different places.

Assays:
[1] = target: T1, P450 2A6 (Homo sapiens, UniProt P11509); experiment: Spectral binding titration with P450 2A6
T1 sequence (P11509 1-494): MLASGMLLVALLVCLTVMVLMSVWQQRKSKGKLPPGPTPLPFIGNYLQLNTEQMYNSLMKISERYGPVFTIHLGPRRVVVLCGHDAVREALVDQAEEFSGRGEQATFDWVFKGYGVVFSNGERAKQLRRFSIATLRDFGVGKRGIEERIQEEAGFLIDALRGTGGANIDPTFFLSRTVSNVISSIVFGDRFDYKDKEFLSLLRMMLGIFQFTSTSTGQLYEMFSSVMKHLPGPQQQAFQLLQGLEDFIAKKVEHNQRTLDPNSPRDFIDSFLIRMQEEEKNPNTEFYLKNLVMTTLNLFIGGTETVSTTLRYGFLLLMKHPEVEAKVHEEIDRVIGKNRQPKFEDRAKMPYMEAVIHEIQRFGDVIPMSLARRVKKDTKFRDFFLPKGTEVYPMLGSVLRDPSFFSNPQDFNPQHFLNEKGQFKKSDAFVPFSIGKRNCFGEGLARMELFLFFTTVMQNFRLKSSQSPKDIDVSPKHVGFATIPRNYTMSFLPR

[2] = target: T2, P450 2A13 (Homo sapiens, UniProt Q16696); experiment: Spectral binding titration with P450 2A13
T2 sequence (Q16696 1-494): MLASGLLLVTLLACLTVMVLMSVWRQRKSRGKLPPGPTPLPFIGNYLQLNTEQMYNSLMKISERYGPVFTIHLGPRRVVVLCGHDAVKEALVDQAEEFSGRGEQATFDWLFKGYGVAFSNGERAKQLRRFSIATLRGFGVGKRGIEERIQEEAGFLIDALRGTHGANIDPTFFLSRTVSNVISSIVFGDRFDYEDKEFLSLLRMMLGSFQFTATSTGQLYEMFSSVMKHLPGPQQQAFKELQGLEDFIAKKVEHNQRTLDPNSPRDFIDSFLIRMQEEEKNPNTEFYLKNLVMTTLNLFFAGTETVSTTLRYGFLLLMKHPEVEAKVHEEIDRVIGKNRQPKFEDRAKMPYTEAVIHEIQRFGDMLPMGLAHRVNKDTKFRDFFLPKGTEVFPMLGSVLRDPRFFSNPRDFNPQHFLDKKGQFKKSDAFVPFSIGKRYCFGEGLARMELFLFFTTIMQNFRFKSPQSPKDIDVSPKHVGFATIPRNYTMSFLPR

[3] = target: P450 3A4 (Homo sapiens, UniProt P08684); experiment: Spectral binding titration with P450 3A4
Chain of P450 3A4 (P08684 whole entry): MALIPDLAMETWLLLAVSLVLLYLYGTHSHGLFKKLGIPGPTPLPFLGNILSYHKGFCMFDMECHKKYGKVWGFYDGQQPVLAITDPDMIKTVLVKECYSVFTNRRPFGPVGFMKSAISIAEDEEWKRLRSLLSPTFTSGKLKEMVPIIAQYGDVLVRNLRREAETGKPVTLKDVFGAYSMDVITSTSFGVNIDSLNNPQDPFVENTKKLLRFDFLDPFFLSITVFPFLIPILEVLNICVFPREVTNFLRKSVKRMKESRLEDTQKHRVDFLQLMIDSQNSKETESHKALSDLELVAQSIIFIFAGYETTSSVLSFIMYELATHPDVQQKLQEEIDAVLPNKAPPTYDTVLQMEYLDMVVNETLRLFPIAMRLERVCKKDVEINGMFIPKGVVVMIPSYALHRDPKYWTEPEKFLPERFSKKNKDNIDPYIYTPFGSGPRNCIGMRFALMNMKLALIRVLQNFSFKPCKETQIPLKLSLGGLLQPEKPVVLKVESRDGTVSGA

[4] = tested on: S. typhimurium NM2009; experiment: Genotoxicity assay, induction of umu gene expression; assay type: cell-based, Salmonella typhimurium; conditions: for genotoxic activity (induction of umu gene expression): 0-160 µM, without P450; for cytotoxic activity: at concentrations of 80 and 160 µM, tester strain NM2009
[5] = target: T1, P450 2A6; conditions: cited from earlier work
[6] = target: T2, P450 2A13; conditions: cited from earlier work
[7] = tested on: P450 2A6; conditions: cited from earlier work
[8] = tested on: P450 2A13; conditions: cited from earlier work
[9] = tested on: Salmonella typhimurium TA1537 and TA1538; conditions: cited from earlier work
[10] = tested on: HepG2; conditions: cited from earlier work
[11] = tested on: S. typhimurium TA120; conditions: photomutagenesis assay; cited from earlier work
[12] = tested on: S. typhimurium TM677; conditions: cited from earlier work
[13] = target: T3, P450 1B1 (Homo sapiens, UniProt Q16678); experiment: Spectral binding titration with P450 1B1
T3 sequence (Q16678 1-543): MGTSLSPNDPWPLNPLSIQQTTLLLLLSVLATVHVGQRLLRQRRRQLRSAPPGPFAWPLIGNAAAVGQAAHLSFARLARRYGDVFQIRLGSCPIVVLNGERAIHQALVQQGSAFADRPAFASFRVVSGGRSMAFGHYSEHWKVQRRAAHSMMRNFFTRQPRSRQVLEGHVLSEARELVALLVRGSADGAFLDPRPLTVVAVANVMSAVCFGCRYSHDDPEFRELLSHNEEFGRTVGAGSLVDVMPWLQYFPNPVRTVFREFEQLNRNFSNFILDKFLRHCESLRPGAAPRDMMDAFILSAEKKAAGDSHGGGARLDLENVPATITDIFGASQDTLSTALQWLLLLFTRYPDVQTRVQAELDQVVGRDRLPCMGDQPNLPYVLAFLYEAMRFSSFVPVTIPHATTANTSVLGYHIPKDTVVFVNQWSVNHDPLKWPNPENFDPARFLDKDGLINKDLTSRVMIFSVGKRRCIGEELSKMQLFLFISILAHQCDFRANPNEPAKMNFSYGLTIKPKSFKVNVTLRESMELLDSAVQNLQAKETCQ

[14] = target: T4, P450 1A2 (Homo sapiens, UniProt P05177); experiment: Spectral binding titration with P450 1A2
T4 sequence (P05177 1-516): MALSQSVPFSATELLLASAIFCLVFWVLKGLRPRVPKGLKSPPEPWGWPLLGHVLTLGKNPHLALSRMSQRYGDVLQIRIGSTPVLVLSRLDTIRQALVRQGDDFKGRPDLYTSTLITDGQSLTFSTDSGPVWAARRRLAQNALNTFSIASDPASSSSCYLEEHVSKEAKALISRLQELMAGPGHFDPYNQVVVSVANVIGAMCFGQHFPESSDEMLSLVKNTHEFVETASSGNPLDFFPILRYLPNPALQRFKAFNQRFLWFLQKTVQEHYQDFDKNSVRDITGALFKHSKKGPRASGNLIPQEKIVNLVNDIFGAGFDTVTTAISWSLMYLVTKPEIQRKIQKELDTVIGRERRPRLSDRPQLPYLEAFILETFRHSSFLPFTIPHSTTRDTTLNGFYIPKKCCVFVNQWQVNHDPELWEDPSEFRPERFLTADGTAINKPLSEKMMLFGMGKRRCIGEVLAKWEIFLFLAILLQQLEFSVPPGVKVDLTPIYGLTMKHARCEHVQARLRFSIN

[15] = target: P450 2C9 (Homo sapiens, UniProt P11712); experiment: Spectral binding titration with P450 2C9
Chain of P450 2C9 (P11712 whole entry): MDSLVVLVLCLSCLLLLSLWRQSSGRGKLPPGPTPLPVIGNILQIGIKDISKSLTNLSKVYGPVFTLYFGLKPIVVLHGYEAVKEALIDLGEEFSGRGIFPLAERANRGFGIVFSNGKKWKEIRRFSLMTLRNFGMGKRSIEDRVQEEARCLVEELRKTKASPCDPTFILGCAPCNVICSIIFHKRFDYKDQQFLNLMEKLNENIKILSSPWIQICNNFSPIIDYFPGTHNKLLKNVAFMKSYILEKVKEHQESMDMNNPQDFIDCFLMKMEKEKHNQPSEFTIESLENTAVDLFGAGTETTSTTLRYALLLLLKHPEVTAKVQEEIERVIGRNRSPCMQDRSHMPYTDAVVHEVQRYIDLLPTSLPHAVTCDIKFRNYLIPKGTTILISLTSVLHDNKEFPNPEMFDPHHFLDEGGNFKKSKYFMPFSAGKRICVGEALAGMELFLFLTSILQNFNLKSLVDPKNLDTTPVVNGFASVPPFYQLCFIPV

[16] = target: T1, P450 2A6; experiment: Oxidation by P450 2A6; assay type: in vitro ADME; conditions: 50 µM substrate, reconstituted system, LC-MS
[17] = target: T2, P450 2A13; experiment: Oxidation by P450 2A13; assay type: in vitro ADME; conditions: 50 µM substrate, reconstituted system, LC-MS
[18] = non-classifiable as to carcinogenicity to humans; cited from earlier work

SMILES	ΔAmax / Ks ([1]; P450 2A6)	ΔAmax / Ks ([2]; P450 2A13)	Kd [3]	ΔAmax / Ks ([3]; P450 3A4)	genotoxic activity (induction of umu gene expression) [4]	cytotoxic activity [4]	genotoxicity after metabolic activation with P450 2A6 and 2A13 [4]	photomutagenicity [11]	binding spectra induced ([1]; P450 2A6)	Kd [2]	binding spectra induced ([2]; P450 2A13)	ΔAmax ([2]; P450 2A13, ± SE)	binding spectra induced ([3]; P450 3A4)	ΔAmax ([3]; P450 3A4, ± SE)	spectral changes [13]	spectral changes [14]	spectral changes [15]	ΔAmax ([1]; P450 2A6, ± SE)	other results
C1=Cc2cccc3cccc1c23 [acenaphthylene]	0.017	0.081	13 ± 2.7 µM	0.002	Neither these four PAHs induced umu gene expression; also recorded: none of these four chemicals showed any genotoxic activity	10-20%	negative results	weakly mutagenic	–	–	–	–	–	–	–	–	–	–	ΔAmax [1]: 0.076±0.002; ΔAmax [2]: 0.050±0.004; ΔAmax [3]: 0.030±0.002; binding spectra induced [5]: Type I; binding spectra induced [6]: Type I; inhibition of coumarin 7-hydroxylation activity [7]: inhibit; inhibition of coumarin 7-hydroxylation activity [8]: inhibit; mutagenicity [9]: non-mutagenic; cytotoxicity [10]: non-cytotoxic; mutagenicity [12]: mutagenic
OC1Cc2cccc3cccc1c23 (centres unmarked) [1-acenaphthenol]	–	0.13	7.8 ± 2.2 µM	0.002	Neither these four PAHs induced umu gene expression; also recorded: none of these four chemicals showed any genotoxic activity	10-20%	negative results	–	very weak or undetectable	0.48 ± 0.03 µM	Type I	0.061±0.001	very weak or undetectable	0.013 ± 0.001	did not show any spectral changes	did not show any spectral changes	did not show any spectral changes	–	–
c1cc2c3c(cccc3c1)C1OC21 (centres unmarked) [1,2-epoxyacenaphthene, 1,2-Epoxyacenaphthene]	0.035	0.46	6.2 ± 0.87 µM	0.007	Neither these four PAHs induced umu gene expression; also recorded: none of these four chemicals showed any genotoxic activity	10-20%	negative results	–	Type I	0.16 ± 0.03 µM	Type I	0.073 ± 0.002	Type I	0.041 ± 0.002	did not show any spectral changes	did not show any spectral changes	did not show any spectral changes	0.062 ± 0.002	further oxidation by P450 2A6 [16]: further oxidized; further oxidation by P450 2A13 [17]: to a small extent; Kd ([1]; Ks (spectral dissociation constant), P450 2A6, 1 µM P450, pH 7.4, ± SE): 1.78 ± 0.25 µM; Ks with P450 2A13 lower than with P450 2A6 ([2]; P450 2A13 vs P450 2A6): ~ 10 fold
Oc1ccc2c(cc3ccc4cccc5ccc2c3c45)c1O [benzo[a]pyrene-7,8-diol, reference compound]	–	–	–	–	–	–	–	–	–	–	–	–	–	–	–	–	–	–	umu gene expression after metabolic activation (positive control) ([4]; with P450 1B1, results not shown): induced umu gene expression
c1cc2c3c(cccc3c1)CC2 [acenaphthene]	0.055	0.15	19 ± 3.5 µM	0.002	Neither these four PAHs induced umu gene expression	10-20%	negative results	weakly mutagenic	–	–	–	0.074±0.005	–	0.040±0.003	–	–	–	0.066±0.002	genotoxic activity (induction of umu gene expression) ([4]; listed as Acenaphthene): none of these four chemicals showed any genotoxic activity; binding spectra induced ([5]; P450 2A6): Type I; binding spectra induced ([6]; P450 2A13): Type I; inhibition of coumarin 7-hydroxylation activity ([7]; P450 2A6): inhibit; inhibition of coumarin 7-hydroxylation activity ([8]; P450 2A13): inhibit; mutagenicity ([9]; TA1537 and TA1538): non-mutagenic; cytotoxicity ([10]; human liver tumor cell lines and HepG2 in vitro): non-cytotoxic; IARC category [18]: Group 3
